pEC50, pIC50: −log10 of the molar value.
How the values were obtained:
hCB2-HEK293 membranes = molecular target: T1, hCB2-HEK293 membranes (Homo sapiens, UniProt P34972); test: CB-2 membrane binding assay ([3H] CP 55,940 displacement); settings: mean where tested more than once
T1 construct: expressed in transfected cells; host or cells: HEK293

[1] = Chronic DIO mouse: plasma and brain concentrations; assay type: in vivo; settings: for Brain concentration (Std Dev): DIO mice, second study
Protocol: Male 14-20-week old diet-induced obese mice were ordered from Taconic. Mice were started on a 60% fat diet (D12492, Research Diets, New Brunswick, N.J.) at 6 weeks of age. Mice were single-housed.
(§1) Test compounds were formulated in 10% PEG400 and 10% solutol. Test compounds were administered by oral gavage (5 ml kg^−1).
The test compound was formulated in 10% PEG400 and 10% solutol. DIO mice received vehicle, test compound (@1, 3 and 10 mg/kg) daily for 26 days. At the end of the experiment, the mice were euthanized and blood and tissues were collected.
Compound #44 was tested according to the procedure as described above, with results as listed in Table BIO-4A through Table BIO4-G, below.
In a second study, Compound #44 was tested according to the procedure as described above, with results as listed in Tables BIO-5A through 5G, below.

Male SD rats = test: Open field locomotor activity in rats (CNS activity), stereotypic counts; assay type: in vivo, rat; settings: 4 hour monitoring, vehicle 3022
Excerpt: (§2) Male Sprague Dawley rats were ordered from Charles River (225-250 gm upon arrival). They were fed standard chow diet (Purina 5001) and housed 2 per cage. Male C57bl/6j mice were ordered from Charles River at 22-25 g and housed 3 per cage. They were fed standard chow (Purina 5001). All animals were housed in a temperature-controlled room with 12-hour light/dark cycle. Animals were given food and water ad libitum, except as noted.
as §1
Male SD rats were weighed and transferred to the Activity Chambers with access to water. After a 2-hr acclimation period, the rats were dosed with vehicle or test compound (@3 and 10 mg/kg). The Activity Chamber monitoring software program was initiated and automatically recorded rat activity in each chamber for a period of 4 hours. At the end of the 4 hour monitoring period, the software was stopped and the rats were removed from the activity chambers. The rats were anesthetized and blood samples were obtained via retro-orbital puncture to determine plasma concentration of compounds. The rats were immediately euthanized with CO2 and the brains removed, washed with PBS, frozen on dry ice and stored at −80° C. for receptor occupancy (RO) analysis. […]

hCB1-CHO-K1 membranes = hCB1-CHO-K1 membranes (Homo sapiens, UniProt P21554); test: CB-1 membrane binding assay ([3H] CP 55,940 displacement)
[2] = molecular target: T2, Human CB2R (Cannabinoid receptor 2) (Homo sapiens, UniProt P34972); test: CB-2 in vitro cAMP (HTRF) functional assay; assay type: cell-based; settings: mean where tested more than once
T2 construct: host or cells: HEK-293
Excerpt: CB1 and CB2 receptors are Gi-coupled GPCR. Activation of CB1 and CB2 receptors results in a decrease in cAMP production. An inverse agonist of the CB1 or CB2 receptor results in the opposite effect, an increase of cAMP production. The principle of this assay is based on HTRF® technology (Homogeneous Time-Resolved Fluorescence). The method is a competitive immunoassay between native cAMP produced by cells and the cAMP labeled with the fluorophore d2. The tracer binding is quantified by a Mab anti-cAMP labeled with Eu3+ TBP-NHS Cryptate (supplied as part of the assay kit). The specific signal (i.e. energy transfer) is inversely proportional to the concentration of cAMP in the standard or sample.
Human CB1R (Cannabinoid receptor 1) was stably transfected in HEK-293 cells (DiscoveRx, cat: 93-0200C1). Human CB2R (Cannabinoid receptor 2) was stably transfected in HEK-293 cells (DiscoveRx, cat: 93-0201C1). Cell cultures were maintained in media: DMEM (Invitrogen Cat#12430-054) supplemented with 10% HI FBS (Invitrogen Cat#16140-071), 1% L-glutamine (Invitrogen Cat#25030-081), 0.2 mg/ml Hygromycin B (Invitrogen Cat#10687-010), 600 μg/mL G418 (Invitrogen Cat#10131-035), and 1× Penn/Strep (Invitrogen 15140-122). After cell expansion, aliquots were cryo-stored in media containing 5% DMSO (Pierce Cat#20684).
One day prior to experiments media was warmed to 37° C. and the cryo-stored cells were thawed in a 37° C. water bath. The cells were then added to media (10× volume) and the mixture was centrifuged at 1000 RPM for 5 min. The supernate was removed and the cells were re-suspended in media. A sample of the cell suspension was evaluated on a Cedex XS automated cell counter (Innovatis Systems) to determine viable cells/ml. Additional media was added to the cells to achieve a final cell density of 4E5 cells/mL. The cells were then plated into 384 well PDL white solid bottom plates (Greiner, Cat#781945) at 20 μL per well using a Multidrop (Thermo Scientific). Cells were removed from Row P (location of cAMP standards). Two columns of cells were plated into a clear bottom 384 well PDL coated plate (Greiner, Cat#781944) to view confluence the day of the assay. The cell plates were lidded and stored for 15 minutes in a hood, then transferred to an incubator (37° C., 5% CO2, 95% humidity) overnight.
DMSO was added to all wells of 384 well V bottom polystyrene plate (Greiner, Cat#781280) except to columns 1 and 13, rows O and P and wells M13-M23 and N13-N23. Test compounds (60 μL, 10 mM) were added to Column 1 and 13 (A1 through N1 and A13 through L13). Test compounds were serially diluted 1/3 by transferring and mixing 20 μl sample with 40 μL DMSO.
DMSO (40 μL) was added to wells of 384 well V bottom polystyrene plate: O2 through O11, M14 through M23, N14 through N23, and O14 through O23. AM630 (also known as [6-iodo-2-methyl-1-[2-(4-morpholinyl)ethyl]-1H-indol-3-yl](4-methoxyphenyl)-methanone, Cayman Chemical, Cat#10006974) (60 μL, 10 mM) was added to O1; and 1-(2,4-dichlorophenyl)-7-[(4-fluorophenyl)methylene]-4,5,6,7-tetrahydro-N-1-piperidinyl-1H-indazole-3-carboxamide (60 μL, 10 mM) was added to N13. The control was serially diluted 1/3 by transferring and mixing 20 μl sample with 40 μL DMSO. This process resulted 11 doses per control, 10 mM to […].
Cells plated the day prior to the assay in clear bottom plates were viewed on an inverse microscope to ensure confluency in the range of 60-75%. […]

[3] = Mouse Fast PK/BBB (plasma and brain concentration); assay type: in vivo, Male C57bl/6j mice; settings: 1 hr after oral dosing; 30 mg/kg or 20 mg/kg; N=3
Excerpt: as §2, §1
Male C57bl/6j mice were dosed with test compounds at 30 mg/kg. Plasma was collected via retro-orbital bleeding at 1 hr and 4 hrs after dosing. […] Wet brain weight was recorded before freezing. Brains were homogenized in saline and sent for analysis for determination of concentration of test compound.
Table BIO-3 below present results for representative compounds of the present invention, tested according to the procedure as described above. Each compound was tested in three animals (N=3) and administered PA at 20 mg/kg

hCB1-CHO-K1 membranes, sequence (P21554 whole entry): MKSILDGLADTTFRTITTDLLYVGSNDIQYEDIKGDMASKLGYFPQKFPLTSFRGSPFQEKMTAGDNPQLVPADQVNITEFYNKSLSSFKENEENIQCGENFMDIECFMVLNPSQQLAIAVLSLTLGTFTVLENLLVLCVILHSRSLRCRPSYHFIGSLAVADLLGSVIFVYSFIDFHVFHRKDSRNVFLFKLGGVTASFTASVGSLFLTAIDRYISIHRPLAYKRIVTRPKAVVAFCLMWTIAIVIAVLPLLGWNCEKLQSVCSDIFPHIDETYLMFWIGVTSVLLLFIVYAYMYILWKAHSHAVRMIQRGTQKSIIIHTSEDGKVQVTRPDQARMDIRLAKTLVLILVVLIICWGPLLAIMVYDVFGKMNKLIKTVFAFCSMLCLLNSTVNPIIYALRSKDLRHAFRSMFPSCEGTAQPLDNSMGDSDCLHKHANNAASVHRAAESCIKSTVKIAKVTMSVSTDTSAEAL
T2 sequence (P34972 whole entry): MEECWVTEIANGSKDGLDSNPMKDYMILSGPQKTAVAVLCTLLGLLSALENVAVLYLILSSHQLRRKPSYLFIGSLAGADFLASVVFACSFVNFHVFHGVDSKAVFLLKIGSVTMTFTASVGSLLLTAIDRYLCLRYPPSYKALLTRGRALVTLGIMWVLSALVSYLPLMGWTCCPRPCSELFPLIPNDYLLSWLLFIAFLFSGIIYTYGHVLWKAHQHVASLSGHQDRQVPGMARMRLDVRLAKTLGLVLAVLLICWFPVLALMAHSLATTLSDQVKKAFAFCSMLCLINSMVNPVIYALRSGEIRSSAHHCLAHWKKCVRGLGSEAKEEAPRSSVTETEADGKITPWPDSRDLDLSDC
T1 sequence (P34972 whole entry): as above

pIC50 (hCB2-HEK293 membranes)	Plasma Concentration (Std Dev) ([1]; 1 mg/kg daily, 2 Hours Post Dose, Day 16, first study)	Brain concentration (Std Dev) ([1]; 0.3 mg/kg, Day 2, 2 hours post dose)	Brain concentration (Std Dev) ([1]; 0.3 mg/kg, Day 23, 2 hours post dose)	Brain concentration (Std Dev) ([1]; 1 mg/kg, Day 2, 2 hours post dose)	Brain concentration (Std Dev) ([1]; 3 mg/kg, Day 2, 2 hours post dose)	Stereotypic Counts (MEAN) (Male SD rats; n=8, first #44 row, dose not printed (presumably 3 mg/kg))	Stereotypic Counts (MEAN) (Male SD rats; n=8, second #44 row, dose not printed (presumably 10 mg/kg))	pIC50 (hCB1-CHO-K1 membranes)	pEC50 [2]	BRAIN Mean Conc. ± Std. Dev [3]	Structure (SMILES)
7.28	431 (62) ng/mL	BLOQ*	BLOQ**	BLOQ*	BLOQ*	3250	2850	8.92			O=c1cc(NC2CCN(S(=O)(=O)C(F)(F)F)CC2)c2cc(C(c3ccc(Cl)cc3)c3ccc(Cl)cc3)ccc2[nH]1 [Compound #44, 6-(bis(4-chlorophenyl)methyl)-4-(1-(trifluoromethylsulfonyl)piperidin-4-ylamino)quinolin-2(1H)-one]
									< 5.00	BLOQ ± NA	O=c1cc(Nc2ccc(C(F)(F)F)cc2)c2cc(C(c3ccc(Cl)cc3)c3ccc(Cl)cc3)ccc2[nH]1 [Compound #59, 6-(bis(4-chlorophenyl)methyl)-4-((4-(trifluoromethyl)phenyl)amino)quinolin-2(1H)-one]
